Patent publication US10143747B2, “Breast cancer therapeutics” (IMBA—INSTITUT FÜR MOLEKULARE BIOTECHNOLOGIE GMBH, priority 2010, dated 2018)

Tested on: Lin-CD24+CD49f^hi cells
Experiment: FACS quantification of stem cell-enriched Lin-CD24+CD49f hi mammary population (MaSC)
Assay type: in vivo, mouse
Settings: MPA for 3 days
Description: a,b, Induction of RANKL expression by the progesterone-derivative MPA. Nulliparous wild type females were s.c. implanted with slow-release MPA pellets or treated with surgery sham. a, RANKL mRNA was determined in purified mammary epithelial cells by qRT-PCR three days after implantation. Data are shown as fold change compared to sham treatment (+/−sem) (n=3). b, In situ […] immunostaining of progesterone receptor (PR, red) and RANKL (green) in mammary epithelial cells after 3d MPA treatment. c, Induction of soluble RANKL protein assayed on isolated mammary gland epithelial cells from control, but not in prolactin receptor mutant (PRL-R KO) females on day 3 after s.c. MPA implantation. […] Proliferation was determined by in situ Ki67 immunostaining. e,f, Marked increase of the stem cell-enriched CD24^+CD49^high population (MaSC) in MPA-treated mammary glands in control but not in RANK^Δmam mammary glands. e, Representative FACS profiles showing CD24 and CD49 expression of lineage negative (CD31^− (endothelial cells) CD45^− (hematopoietic cells) […] (erythroid cells)) of mammary MaSCs from MPA- or sham-treated 8-week old virgin females. f, Quantification of MaSC-enriched CD24^+CD49^high population from mammary glands of MPA- or sham-treated virgin RANK^Δmam and littermate control females. […]

With `CC(=O)O[C@]1(C(C)=O)CC[C@H]2[C@@H]3C[C@H](C)C4=CC(=O)CC[C@]4(C)[C@H]3CC[C@@]21C` [MPA, medroxyprogesterone acetate] the “expansion of Lin-CD24+CD49f hi cells” value (RANKΔmam females) was “did not occur” and the “expansion of Lin-CD24+CD49f hi cells” value (control females) was “two-fold”.
